EC50 data for 24 molecules are collected here from US20250129104A1, “7H-PYRROLO[2,3-D]PYRIMIDINES AND PREPARATION AND USES THEREOF” (BioSplice Therapeutics, Inc., priority 2021, published 2025).

This assay has as its target recombinant DYRK1A kinase (Homo sapiens (Human), UniProt Q13627). As to the kind of experiment: DYRK1A kinase assay (Ser/Thr 18 peptide Z-lyte FRET assay). It counts as biochemical. The following applies: DYRK1A kinase activity; 15 μM ATP, 1 h room temperature; method text calls the value IC50. The gist of the method: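 FRET Z-lyte read-out (coumarin/fluorescein ratio, % phosphorylation) after 1 h development; IC50 from non-linear curve fit. Reaction: 0.25 μg/mL recombinant human DYRK1A, Ser/Thr 18 peptide 4 μM, ATP 15 μM, compound in 11-point 1:3 series from 10 μM, 1 h, room temperature, duplicate wells.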

The EC50 is the concentration giving half of the maximal effect. For `COc1nc(N[C@H]2CC[C@@H](OCC(F)F)CC2)nc2[nH]cc(-c3ccn4nccc4c3)c12` [Compound 2212, N-(cis-4-(2,2-Difluoroethoxy)cyclohexyl)-4-methoxy-5-(pyrazolo[1,5-a]pyridin-5-yl)-7H-pyrrolo[2,3-d]pyrimidin-2-amine], the EC50 was 6.6 nM.
As for `COc1nc(N[C@H]2CC[C@@H](OCCO)CC2)nc2[nH]cc(-c3ccn4nccc4c3)c12` [Compound 2213, 2-((cis-4-((4-Methoxy-5-(pyrazolo[1,5-a]pyridin-5-yl)-7H-pyrrolo[2,3-d]pyrimidin-2-yl)amino)cyclohexyl)oxy)ethan-1-ol], the EC50 stood at 71.9 nM.
On to `COCCO[C@H]1CC[C@@H](Nc2nc(OC)c3c(-c4ccn5nccc5c4)c[nH]c3n2)CC1` [Compound 2214, 4-Methoxy-N-(cis-4-(2-methoxyethoxy)cyclohexyl)-5-(pyrazolo[1,5-a]pyridin-5-yl)-7H-pyrrolo[2,3-d]pyrimidin-2-amine], for which the EC50 is 1.7 nM.
As for `COc1nc(NC2CCC3(CC2)OCCO3)nc2[nH]cc(-c3ccn4nccc4c3)c12` [Compound 2215, 4-Methoxy-5-(pyrazolo[1,5-a]pyridin-5-yl)-N-(1,4-dioxaspiro[4.5]decan-8-yl)-7H-pyrrolo[2,3-d]pyrimidin-2-amine], the EC50 was found to be 1.6 nM.
As for `COc1nc(NC2CCN(C)CC2)nc2[nH]cc(-c3ccn4nccc4c3)c12` [Compound 2216, 4-Methoxy-N-(1-methylpiperidin-4-yl)-5-(pyrazolo[1,5-a]pyridin-5-yl)-7H-pyrrolo[2,3-d]pyrimidin-2-amine], the EC50 turned out to be 7.4 nM.
As for `COc1nc(NC2CCOCC2)nc2[nH]cc(-c3ccn4nccc4c3)c12` [Compound 2217, 4-Methoxy-5-(pyrazolo[1,5-a]pyridin-5-yl)-N-(tetrahydro-2H-pyran-4-yl)-7H-pyrrolo[2,3-d]pyrimidin-2-amine], the figure is 2.2 nM.
As for `CCOc1nc(N[C@H](C)C(F)(F)F)nc2[nH]cc(-c3ccn4nccc4c3)c12` [Compound 2218, (R)-4-Ethoxy-5-(pyrazolo[1,5-a]pyridin-5-yl)-N-(1,1,1-trifluoropropan-2-yl)-7H-pyrrolo[2,3-d]pyrimidin-2-amine], the figure is 12.9 nM.
The value for `CCOc1nc(N[C@H]2CC[C@@H](O)CC2)nc2[nH]cc(-c3ccn4nccc4c3)c12` [Compound 2219, cis-4-((4-Ethoxy-5-(pyrazolo[1,5-a]pyridin-5-yl)-7H-pyrrolo[2,3-d]pyrimidin-2-yl)amino)cyclohexan-1-ol] was 3.5 nM; that for `CC(C)Oc1nc(N[C@H]2CC[C@@](C)(O)CC2)nc2[nH]cc(-c3ccn4nccc4c3)c12` [Compound 2220, cis-4-((4-Isopropoxy-5-(pyrazolo[1,5-a]pyridin-5-yl)-7H-pyrrolo[2,3-d]pyrimidin-2-yl)amino)-1-methylcyclohexan-1-ol] was 66.1 nM.
Turning to `FC(F)CO[C@H]1CC[C@@H](Nc2ncc3c(-c4ccn5nccc5n4)c[nH]c3n2)CC1` [Compound 2222, N-(cis-4-(2,2-Difluoroethoxy)cyclohexyl)-5-(pyrazolo[1,5-a]pyrimidin-5-yl)-7H-pyrrolo[2,3-d]pyrimidin-2-amine], the EC50 amounted to 5.8 nM.
As for `COc1nc(NC2CCOCC2)nc2[nH]cc(-c3ccn4nccc4n3)c12` [Compound 2224, 4-Methoxy-5-(pyrazolo[1,5-a]pyrimidin-5-yl)-N-(tetrahydro-2H-pyran-4-yl)-7H-pyrrolo[2,3-d]pyrimidin-2-amine], the figure is 10.7 nM; as for `COCCO[C@H]1CC[C@@H](Nc2ncc3c(-c4ccc5ncccc5c4)c[nH]c3n2)CC1` [Compound 2226, N-(cis-4-(2-Methoxyethoxy)cyclohexyl)-5-(quinolin-6-yl)-7H-pyrrolo[2,3-d]pyrimidin-2-amine], 6.2 nM.
The value for `COc1nc(NC2CCC(F)(F)CC2)nc2[nH]cc(-c3ccc4ncccc4c3)c12` [Compound 2227, N-(4,4-Difluorocyclohexyl)-4-methoxy-5-(quinolin-6-yl)-7H-pyrrolo[2,3-d]pyrimidin-2-amine] was 175 nM.
The value for `C[C@]1(O)CC[C@@H](Nc2ncc3c(-c4ccc5nccnc5c4)c[nH]c3n2)CC1` [Compound 2228, cis-1-Methyl-4-((5-(quinoxalin-6-yl)-7H-pyrrolo[2,3-d]pyrimidin-2-yl)amino)cyclohexan-1-ol] was 2.6 nM; that for `OCCO[C@H]1CC[C@@H](Nc2ncc3c(-c4ccc5nccnc5c4)c[nH]c3n2)CC1` [Compound 2229, 2-((cis-4-((5-(Quinoxalin-6-yl)-7H-pyrrolo[2,3-d]pyrimidin-2-yl)amino)cyclohexyl)oxy)ethan-1-ol] was 2.6 nM.
In the case of `COc1nc(NC2CCC(F)(F)CC2)nc2[nH]cc(-c3ccc4nccnc4c3)c12` [Compound 2230, N-(4,4-Difluorocyclohexyl)-4-methoxy-5-(quinoxalin-6-yl)-7H-pyrrolo[2,3-d]pyrimidin-2-amine], the EC50 is 4.5 nM.
As for `COc1nc(N[C@H]2CC[C@@](C)(O)CC2)nc2[nH]cc(-c3ccc4nccnc4c3)c12` [Compound 2231, cis-4-((4-Methoxy-5-(quinoxalin-6-yl)-7H-pyrrolo[2,3-d]pyrimidin-2-yl)amino)-1-methylcyclohexan-1-ol], the figure is 2.2 nM.
As to `CCOc1nc(N[C@H]2CC[C@@H](O)CC2)nc2[nH]cc(-c3ccc4nccnc4c3)c12` [Compound 2232, cis-4-((4-Ethoxy-5-(quinoxalin-6-yl)-7H-pyrrolo[2,3-d]pyrimidin-2-yl)amino)cyclohexan-1-ol], the EC50 is 1.3 nM.
The value for `COc1nc(N[C@H]2CC[C@@](C)(O)CC2)nc2[nH]cc(-c3ccc4nccn4c3)c12` [Compound 2233, cis-4-((5-(Imidazo[1,2-a]pyridin-6-yl)-4-methoxy-7H-pyrrolo[2,3-d]pyrimidin-2-yl)amino)-1-methylcyclohexan-1-ol] was 1.6 nM; that for `C[C@]1(O)CC[C@@H](Nc2ncc3c(-c4ccn5nccc5c4)c[nH]c3n2)CC1` [Compound 2234, cis-1-Methyl-4-((5-(pyrazolo[1,5-a]pyridin-5-yl)-7H-pyrrolo[2,3-d]pyrimidin-2-yl)amino)cyclohexan-1-ol] was 5.9 nM.
In the case of `C[C@]1(O)CC[C@@H](Nc2ncc3c(-c4ccc5nccn5c4)c[nH]c3n2)CC1` [Compound 2235, cis-4-((5-(Imidazo[1,2-a]pyridin-6-yl)-7H-pyrrolo[2,3-d]pyrimidin-2-yl)amino)-1-methylcyclohexan-1-ol], the half-maximal effective concentration (EC50) was 7.4 nM.
Turning to `C[C@]1(O)CC[C@H](Nc2ncc3c(-c4ccc5nccn5c4)c[nH]c3n2)CC1` [Compound 2236, trans-4-((5-(Imidazo[1,2-a]pyridin-6-yl)-7H-pyrrolo[2,3-d]pyrimidin-2-yl)amino)-1-methylcyclohexan-1-ol], the EC50 worked out at 15 nM.
Regarding `C[C@]1(O)CC[C@H](Nc2ncc3c(-c4cc(F)c5nccn5c4)c[nH]c3n2)CC1` [Compound 2237, trans-4-((5-(8-Fluoroimidazo[1,2-a]pyridin-6-yl)-7H-pyrrolo[2,3-d]pyrimidin-2-yl)amino)-1-methylcyclohexan-1-ol], the EC50 worked out at 7.9 nM.
As for `Cc1nc2ccc(-c3c[nH]c4nc(N[C@H]5CC[C@@](C)(O)CC5)ncc34)nc2n1CC(F)F` [Compound 2239, cis-4-((5-(3-(2,2-Difluoroethyl)-2-methyl-3H-imidazo[4,5-b]pyridin-5-yl)-7H-pyrrolo[2,3-d]pyrimidin-2-yl)amino)-1-methylcyclohexan-1-ol], the figure is 6.9 nM.
